Source: patent publication US20130058922A1 (priority 2009, published 2013)
“And” between values parts separate entries of the source, which are not always exact repeats. Identical values can stand only once. Like-named read-outs stand apart in the source and are kept apart here.

Columns and labels:
[1] = test system: circulating tumour cells (CTCs) in the blood; details: in vitro; tumour cells in blood of 13 patients (breast, colon, prostate, pancreas cancer); MAINTRAC
Source text: This method allows the detection of smallest amounts of tumour cells in blood and other body fluids (Pachmann K., Clement J. H., Schneider C.-P., Willen B., Camara O., Pachmann U., Hoeffken K., Standardized quantification of circulating peripheral tumour cells from lung and breast cancer. Clin. Chem. Lab-Med., 2005, 43; 617-627).

[2] = test system: circulating tumour cells (CTCs)
Protocol: (§1) Depending on the dose, the infusion therapy was applied for 3-5 hours.

[3] = test system: leukocytes / dysfunctional leukocyte precursors
Protocol: as §1

[4] = Clinical observation of patients during and after choline infusion therapy (vital parameters, tolerability, condition)
[5] = Gastric CA, one i.v. choline therapy for 3 to 5 hours, MainTrac
[6] = Histiocytoma, one i.v. choline therapy for 3 to 5 hours, MainTrac
[7] = Prostate CA, one i.v. choline therapy for 3 to 5 hours, MainTrac
[8] = mean over all tumour types of Table 1, one i.v. choline therapy for 3 to 5 hours, MainTrac
[9] = mean of Table 2 leukaemia measurements, one i.v. choline therapy for 3 to 5 hours

**Q.** For C[N+](C)(C)CCO [choline], which cytosensitivity to choline [1] is on record?
**A.** up to 95%

**Q.** What about the CTCs after therapy ([2]; Gastric CA, after one i.v. choline therapy for 3 to 5 hours, MainTrac) of the same compound?
**A.** 1.75 million tumour cells

**Q.** And the “CTCs After − before Difference (Δ)” value [2, 5]?
**A.** −12.25 million tumour cells

**Q.** What about the “CTCs After − before Δ % before” value [2, 5] of the same compound?
**A.** −87.00%

**Q.** And the CTCs after therapy ([2]; Histiocytoma, after one i.v. choline therapy for 3 to 5 hours, MainTrac)?
**A.** 65.00 million tumour cells

**Q.** What about the “CTCs After − before Difference (Δ)” value [2, 6] of the same compound?
**A.** −307.50 million tumour cells

**Q.** What about the “CTCs After − before Δ % before” value [2, 6] of the same compound?
**A.** −82.00%

**Q.** What about the CTCs after therapy ([2]; Pancreas CA, after one i.v. choline therapy for 3 to 5 hours, MainTrac) of the same compound?
**A.** 3.00 million tumour cells and 2.75 million tumour cells

**Q.** What about the CTCs after therapy ([2]; Prostate CA, after one i.v. choline therapy for 3 to 5 hours, MainTrac) of the same compound?
**A.** 8.75 million tumour cells

**Q.** And the “CTCs After − before Difference (Δ)” value [2, 7]?
**A.** −3.75 million tumour cells

**Q.** What about the “CTCs After − before Δ % before” value [2, 7] of the same compound?
**A.** −30.00%

**Q.** And the “After − before Δ% before (after 4 weeks), mean values” ([2]; Table 3 mean of leukaemia patient leukocytes and breast cancer patient CTCs, 4 weeks later)?
**A.** −40.00%

**Q.** What about the “After − before Δ% before, mean values” ([2]; Table 3 mean of leukaemia patient leukocytes and breast cancer patient CTCs, directly after therapy) of the same compound?
**A.** −30.00%

**Q.** What about the “MainTrac (CTCs), After 4 weeks value” ([2]; breast cancer patient, after another 4 weeks without therapy) of the same compound?
**A.** 5.25 million tumour cells

**Q.** And the “MainTrac (CTCs), After − before Δ% before (after 4 weeks)” value ([2]; breast cancer patient, after another 4 weeks without therapy, relative to initial value)?
**A.** −72.00%

**Q.** And the “CTCs after therapy, mean value” ([2]; mean over all tumour types of Table 1, after one i.v. choline therapy for 3 to 5 hours, MainTrac)?
**A.** 9.75 million tumour cells

**Q.** And the “CTCs After − before Difference (Δ), mean value” [2, 8]?
**A.** −37 million tumour cells and −37.00 million tumour cells

**Q.** And the “CTCs After − before Δ % before, mean value” [2, 8]?
**A.** −54.6%

**Q.** What about the “Leukocytes, After 4 weeks value” ([3]; leukaemia patient blood, 4 weeks after one i.v. choline therapy) of the same compound?
**A.** 281.60

**Q.** And the “Leukocytes, After − before Δ% before (after 4 weeks)” value ([3]; leukaemia patient blood, 4 weeks after one i.v. choline therapy, compared to the initial value)?
**A.** −8%

**Q.** And the “Leukocytes after therapy, mean values” ([3]; mean of Table 2 leukaemia measurements, after one i.v. choline therapy for 3 to 5 hours)?
**A.** 228.53

**Q.** And the “Leukocytes After − before Difference (Δ), mean values” [3, 9]?
**A.** −25.77

**Q.** And the “Leukocytes After − before Δ % before, mean values” [3, 9]?
**A.** −10.00%

**Q.** And the “changes in vital parameters (RR, pulse, SO2, ECG, temperature)” value ([4]; 9 tumour patients, during and subsequent to i.v. infusion therapy of 3-5 hours)?
**A.** no patient showed relevant changes in the vital parameters

**Q.** What about the “tolerability of the infusion therapy” value ([4]; 9 tumour patients, i.v. infusion for 3-5 hours) of the same compound?
**A.** very well tolerated

**Q.** What about the side effects ([4]; in some cases, on the following day, in general only during few hours, depending on the dose) of the same compound?
**A.** nausea and increased temperature
